From patent US8012949B2, “Bisphosphonate compounds and methods with enhanced potency for multiple targets including FPPS, GGPPS, and DPPS” (The Board of Trustees of the University of Illinois, priority 2004, dated 2011)
Where two headings read alike, the source gives them in different places.

Experiments:
[1] = target: T1, human FPPS (Homo sapiens, UniProt P14324); assay: human FPPS enzyme inhibition; assay type: biochemical
T1 construct: made in house
T1 sequence (P14324 1-419): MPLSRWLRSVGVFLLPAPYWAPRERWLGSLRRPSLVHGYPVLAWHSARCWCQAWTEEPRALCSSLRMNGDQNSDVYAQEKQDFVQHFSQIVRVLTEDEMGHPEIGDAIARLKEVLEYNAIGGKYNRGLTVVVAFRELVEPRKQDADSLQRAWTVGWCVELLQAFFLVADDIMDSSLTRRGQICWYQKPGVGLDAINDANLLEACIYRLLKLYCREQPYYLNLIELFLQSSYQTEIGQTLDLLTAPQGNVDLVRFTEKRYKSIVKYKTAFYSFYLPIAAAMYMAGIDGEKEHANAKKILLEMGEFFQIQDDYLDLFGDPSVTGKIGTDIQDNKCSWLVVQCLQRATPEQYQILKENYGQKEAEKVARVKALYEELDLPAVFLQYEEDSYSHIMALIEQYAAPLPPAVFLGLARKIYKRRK
Source text: (§1) To test our polypharmaceutical hypothesis, we expressed three enzymes: human FPPS, GGPPS and DPPS, and tested each for their inhibition by a series of bisphosphonates.

[2] = target: T2, human DPPS (Homo sapiens, UniProt Q5T2R2); assay: human DPPS enzyme inhibition; assay type: biochemical
T2 construct: made in house
T2 sequence (Q5T2R2 1-415): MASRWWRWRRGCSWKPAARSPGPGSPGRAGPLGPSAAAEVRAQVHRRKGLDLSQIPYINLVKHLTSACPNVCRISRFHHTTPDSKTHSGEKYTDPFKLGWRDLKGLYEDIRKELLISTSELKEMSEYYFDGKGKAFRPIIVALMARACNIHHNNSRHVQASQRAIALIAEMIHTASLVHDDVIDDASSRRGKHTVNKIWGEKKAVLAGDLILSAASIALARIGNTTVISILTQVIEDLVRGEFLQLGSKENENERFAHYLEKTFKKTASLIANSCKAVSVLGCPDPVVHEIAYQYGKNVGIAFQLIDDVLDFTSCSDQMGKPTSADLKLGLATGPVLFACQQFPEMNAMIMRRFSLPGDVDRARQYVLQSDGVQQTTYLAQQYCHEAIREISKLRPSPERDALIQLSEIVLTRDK
T2 sequence (Q86YH6 1-399 partner): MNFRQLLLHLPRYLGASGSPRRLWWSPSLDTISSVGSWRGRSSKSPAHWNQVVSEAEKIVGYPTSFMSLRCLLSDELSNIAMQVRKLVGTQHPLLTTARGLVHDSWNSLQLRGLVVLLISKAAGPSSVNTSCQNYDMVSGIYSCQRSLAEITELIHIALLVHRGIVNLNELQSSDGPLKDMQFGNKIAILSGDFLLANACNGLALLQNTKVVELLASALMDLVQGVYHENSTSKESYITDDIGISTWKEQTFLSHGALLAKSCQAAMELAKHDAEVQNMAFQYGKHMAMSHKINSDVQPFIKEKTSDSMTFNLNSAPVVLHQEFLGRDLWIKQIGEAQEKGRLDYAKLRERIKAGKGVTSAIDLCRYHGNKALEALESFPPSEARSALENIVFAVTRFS
Source text: as §1

[3] = system: MCF-7 (breast adenocarcinoma); assay: MCF-7 cell growth inhibition (MTT), incl. FOH/GGOH rescue; assay type: cell-based, human; details: for IC50: Homo sapiens, MCF7
[4] = system: NCI-H460 (lung large cell); assay: NCI-H460 cell growth inhibition (MTT); assay type: cell-based, human; details: Homo sapiens, NCI-H460
[5] = system: Vγ2Vδ2 T cells; assay: γδ T cell activation (TNF-α release and proliferation); assay type: cell-based, human
How it was run: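 Vγ2Vδ2 T cell clones (CD4+ JN.24, CD4+ HF.2, CD8αα+ 12G12, CD4−8− HD.108) stimulated with phosphoantigens plus 0.05% glutaraldehyde-fixed APCs: CP.EBV B cells for CD4+ clones, Va-2 fibroblasts for others. TNF-α release and proliferation measured; curve minima from global fitting per experiment, maxima fitted per compound unconstrained.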

[6] = system: cancer cell growth (average); assay: Inhibition of cancer cell growth (average); assay type: cell-based; details: Homo sapiens
Description: Compound 754 was synthesized and tested for activity.
Cell Growth Inhibition Assays. The human tumor cell lines MCF-7 (breast adenocarcinoma), NCI-H460 (lung large cell) and SF-268 (central nervous system glioblastoma) were obtained from the National Cancer Institute. All lines were cultured in RPMI-1640 medium supplemented with 10% fetal bovine serum and 2 mM L-glutamine at 37° C. in a 5% CO2 atmosphere with 100% humidity. A broth microdilution method was used to determine IC50 values for growth inhibition by each bisphosphonate. […] NBPs were typically initially dissolved in H2O (0.01 M) while NNBPs were typically dissolved in DMSO (0.01 M). Plates were then incubated for 4 days at 37° C. in a 5% CO2 atmosphere at 100% humidity after which an MTT ((3-(4,5-dimethylthiazole-2-yl)-2,5-diphenyltetrazolium bromide) cell proliferation assay (ATCC, Manassas, Va.) was used to obtain dose-response curves. The DMSO carrier had no effect on cell proliferation.

effect on FPPS [1]: essentially no effect
Ki ([1]; Table 1, experimental, read-out: FPPS pKi (converted)): 5.01 µM
effect on DPPS [2]: essentially no effect
Ki ([2]; Table 1, experimental, read-out: DPPS_pKi (converted)): 200 nM
IC50 ([3]; Table 1, experimental, read-out: MCF-7 pIC50 (converted)): 25.1 µM
IC50 ([3]; read-out: IC50, inhibition of human breast cancer cell line MCF7): 0.401 µM
IC50 ([4]; Table 1, experimental, read-out: NCI-H460 pIC50 (converted)): 20 µM
IC50 ([4]; read-out: IC50, inhibition of human lung cancer NCIH460): 0.672 µM
IC50 [6]: 500 nM
SMILES: CCCCCCCCCCOc1cccc(CC(O)(P(=O)(O)O)P(=O)(O)O)c1 [BPH-754]
rescue from growth inhibition by geranylgeraniol (GGOH) ([3]; GGOH 20 μM): rescued by GGOH
γδ T cell activation [5]: no effect
